IC50 and inhibition data for 18 molecules are collected here from ChEMBL document CHEMBL1147649, “Design and synthesis of potent beta-secretase (BACE1) inhibitors with P1' carboxylic acid bioisosteres” (Bioorg Med Chem Lett, 2006).

Assay [1] deals with T1, Beta-secretase 1 (Homo sapiens, UniProt P56817). Put plainly: Inhibition of BACE1.
The target of assay [2] is T1, Beta-secretase 1. In words: Inhibition of BACE1 at 0.2 uM.
In assay [3] the target is T1, Beta-secretase 1. In words: Inhibition of BACE1 at 2 uM.

T1 sequence (P56817 whole entry): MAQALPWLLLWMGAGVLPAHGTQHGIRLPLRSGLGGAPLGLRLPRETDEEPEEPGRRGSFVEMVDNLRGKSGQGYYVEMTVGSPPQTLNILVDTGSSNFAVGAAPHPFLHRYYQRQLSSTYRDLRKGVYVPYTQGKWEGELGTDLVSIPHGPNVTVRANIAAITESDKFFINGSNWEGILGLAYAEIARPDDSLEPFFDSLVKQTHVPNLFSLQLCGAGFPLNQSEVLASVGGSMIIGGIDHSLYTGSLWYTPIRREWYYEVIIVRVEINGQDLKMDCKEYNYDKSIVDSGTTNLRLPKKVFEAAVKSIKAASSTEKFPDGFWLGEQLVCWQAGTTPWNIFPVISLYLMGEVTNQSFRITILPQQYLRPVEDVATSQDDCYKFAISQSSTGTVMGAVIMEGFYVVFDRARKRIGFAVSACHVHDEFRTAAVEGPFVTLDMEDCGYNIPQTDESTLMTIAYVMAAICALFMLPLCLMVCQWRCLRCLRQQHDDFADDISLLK

Consider `CC(C)C[C@H](NC(=O)[C@@H](NC(=O)[C@@H](N)CNC(=O)c1nnn[nH]1)C(C)C)C(=O)N[C@@H](Cc1ccccc1)[C@@H](O)C(=O)Nc1cccc(-c2nnn[nH]2)c1`, for which half-maximal inhibition on Beta-secretase 1 [1] (IC50) required 4.8 nM. That is a single-digit nanomolar value.

On Beta-secretase 1 [2], `CC(C)C[C@H](NC(=O)[C@@H](NC(=O)[C@@H](N)CCC(=O)O)C(C)C)C(=O)N[C@@H](Cc1ccccc1)[C@@H](O)C(=O)Nc1cccc(C(=O)O)c1` yielded an inhibition of 44.4%. As to `CC(C)C[C@H](NC(=O)[C@@H](NC(=O)[C@@H](N)CNC(=O)c1nn[nH]n1)C(C)C)C(=O)N[C@@H](Cc1ccccc1)[C@@H](O)C(=O)Nc1cccc(-c2noc(O)n2)c1`, the inhibition came out at 94.2% at Beta-secretase 1 [2] and 100% against Beta-secretase 1 [3]. The midpoint of inhibition at Beta-secretase 1 [1], the IC50, lay at 6.6 nM. For the molecule `CC(C)C[C@H](NC(=O)[C@@H](NC(=O)[C@@H](N)CNC(=O)c1nnn[nH]1)C(C)C)C(=O)N[C@@H](Cc1ccccc1)[C@@H](O)C(=O)Nc1cccc(-c2nc(=S)o[nH]2)c1`, at Beta-secretase 1 [1], the midpoint of inhibition, the IC50, lay at 6.4 nM. That is a single-digit nanomolar value. For the molecule `CC(C)C[C@H](NC(=O)[C@@H](NC(=O)[C@@H](N)CCC(=O)O)C(C)C)C(=O)N[C@@H](Cc1ccccc1)[C@@H](O)C(=O)Nc1cccc(-c2n[nH]c(=S)o2)c1`, the results for the inhibition at Beta-secretase 1 [2] and at Beta-secretase 1 [3] were 72.3% and 92%, respectively. With `CC(C)C[C@H](NC(=O)[C@@H](NC(=O)[C@@H](N)CNC(=O)c1nnn[nH]1)C(C)C)C(=O)N[C@@H](Cc1ccccc1)[C@@H](O)C(=O)Nc1cc(-c2nnn[nH]2)cc(-c2nnn[nH]2)c1`, the IC50 against Beta-secretase 1 [1] was found to be 1.2 nM. Regarding `CC(C)C[C@H](NC(=O)[C@@H](NC(=O)[C@@H](N)CCC(=O)O)C(C)C)C(=O)N[C@@H](Cc1ccccc1)[C@@H](O)C(=O)Nc1cccc(C(=N)N)c1`, on Beta-secretase 1 [3], the inhibition was 29.2%. On to `CC(C)C[C@H](NC(=O)[C@@H](NC(=O)[C@@H](N)CCC(=O)O)C(C)C)C(=O)N[C@@H](Cc1ccccc1)[C@@H](O)C(=O)Nc1cc(C(=O)O)cc(C(=O)O)c1`, for which the inhibition came to 84.3% against Beta-secretase 1 [2] and 98.3% on Beta-secretase 1 [3].

Consider `CC(C)C[C@H](NC(=O)[C@@H](NC(=O)[C@@H](N)CCC(=O)O)C(C)C)C(=O)N[C@@H](Cc1ccccc1)[C@@H](O)C(=O)Nc1cccc(-c2noc(=S)[nH]2)c1`, for which the inhibition stood at 68.4% at Beta-secretase 1 [2] and 94.5% against Beta-secretase 1 [3].

With `CC(C)C[C@H](NC(=O)[C@@H](NC(=O)[C@@H](N)CNC(=O)c1nn[nH]n1)C(C)C)C(=O)N[C@@H](Cc1ccccc1)[C@@H](O)C(=O)Nc1cccc(C(N)=O)c1`, the inhibition is 78.1% against Beta-secretase 1 [2] and 97.3% at Beta-secretase 1 [3].

Take `CC(C)C[C@H](NC(=O)[C@@H](NC(=O)[C@@H](N)CCC(=O)O)C(C)C)C(=O)N[C@@H](Cc1ccccc1)[C@@H](O)C(=O)Nc1cccc(-c2nsc(=O)[nH]2)c1`: the values for the inhibition on Beta-secretase 1 [2] and at Beta-secretase 1 [3] were 63.2% and 91.9%, respectively.

At Beta-secretase 1 [3], `CC(C)C[C@H](NC(=O)[C@@H](NC(=O)[C@@H](N)CCC(=O)O)C(C)C)C(=O)N[C@@H](Cc1ccccc1)[C@@H](O)C(=O)Nc1cccc(-c2n[nH]c(=S)n2C)c1` showed an inhibition of 74.2%. For the molecule `CC(C)C[C@H](NC(=O)[C@@H](NC(=O)[C@@H](N)CCC(=O)O)C(C)C)C(=O)N[C@@H](Cc1ccccc1)[C@@H](O)C(=O)Nc1cccc(-c2noc(=O)[nH]2)c1`, the figures for the inhibition at Beta-secretase 1 [2] and on Beta-secretase 1 [3] were 66.3% and 94.4%, respectively.

As for `CC(C)C[C@H](NC(=O)[C@@H](NC(=O)[C@@H](N)CCC(=O)O)C(C)C)C(=O)N[C@@H](Cc1ccccc1)[C@@H](O)C(=O)Nc1cccc(-c2nn[nH]n2)c1`, the inhibition on Beta-secretase 1 [2] came to 73.7%; on Beta-secretase 1 [3], 92.2%. Consider `CC(C)C[C@H](NC(=O)[C@@H](NC(=O)[C@@H](N)CCC(=O)O)C(C)C)C(=O)N[C@@H](Cc1ccccc1)[C@@H](O)C(=O)Nc1cc(-c2nn[nH]n2)cc(-c2nn[nH]n2)c1`, for which the inhibition against Beta-secretase 1 [2] turned out to be 94%; against Beta-secretase 1 [3], 99.7%. On Beta-secretase 1 [1], this molecule gave an IC50 of 6.4 nM. On to `CC(C)C[C@H](NC(=O)[C@@H](NC(=O)[C@@H](N)CCC(=O)O)C(C)C)C(=O)N[C@@H](Cc1ccccc1)[C@@H](O)C(=O)Nc1cccc(C(N)=O)c1`, for which the inhibition against Beta-secretase 1 [3] was 62.1%. Consider `CC(C)C[C@H](NC(=O)[C@@H](NC(=O)[C@@H](N)CNC(=O)c1nn[nH]n1)C(C)C)C(=O)N[C@@H](Cc1ccccc1)[C@@H](O)C(=O)Nc1cccc(-c2noc(S)n2)c1`, for which the inhibition against Beta-secretase 1 [2] amounted to 97.2%; against Beta-secretase 1 [3], 99.8%. As to `CC(C)C[C@H](NC(=O)[C@@H](NC(=O)[C@@H](N)CNC(=O)c1nn[nH]n1)C(C)C)C(=O)N[C@@H](Cc1ccccc1)[C@@H](O)C(=O)Nc1cc(-c2nn[nH]n2)cc(-c2nn[nH]n2)c1`, the inhibition on Beta-secretase 1 [2] and against Beta-secretase 1 [3] was 100% throughout.
